# Experimental data taken from US4578393A, “Dihydroisoquinoline derivatives” (Beecham Group p.l.c., priority 1983, dated 1986).
# Structures can show the parent of a compound that is named as a salt. Where two headings read alike, the source gives them in different places.
# Legend:
# [1] = tested on: adjuvant arthritis in the rat; assay: Adjuvant arthritis test in the rat; format: in vivo; conditions: read-out: ACTIVE DOSE
# From the text: The test is as described by Newbould, Brit. J. Pharmacol., 1963, 21, 127-136. Compounds were active at the doses shown below.
# 5-Lipoxygenase enzyme = target: T1, 5-Lipoxygenase enzyme (Rattus norvegicus, UniProt P12527); assay: Inhibition of 5-lipoxygenase activity (10,000 g supernatant from RBL-1 cells); format: biochemical; conditions: RBL-1 supernatant, 6.3 μm arachidonic acid, 29° C.
# T1 construct: 5-Lipoxygenase enzyme was prepared as a 10,000 g supernatant from RBL-1 cells; endogenous in cells; host or cells: RBL-1 cells (10,000 g supernatant)
# T1 sequence (P12527 1-673): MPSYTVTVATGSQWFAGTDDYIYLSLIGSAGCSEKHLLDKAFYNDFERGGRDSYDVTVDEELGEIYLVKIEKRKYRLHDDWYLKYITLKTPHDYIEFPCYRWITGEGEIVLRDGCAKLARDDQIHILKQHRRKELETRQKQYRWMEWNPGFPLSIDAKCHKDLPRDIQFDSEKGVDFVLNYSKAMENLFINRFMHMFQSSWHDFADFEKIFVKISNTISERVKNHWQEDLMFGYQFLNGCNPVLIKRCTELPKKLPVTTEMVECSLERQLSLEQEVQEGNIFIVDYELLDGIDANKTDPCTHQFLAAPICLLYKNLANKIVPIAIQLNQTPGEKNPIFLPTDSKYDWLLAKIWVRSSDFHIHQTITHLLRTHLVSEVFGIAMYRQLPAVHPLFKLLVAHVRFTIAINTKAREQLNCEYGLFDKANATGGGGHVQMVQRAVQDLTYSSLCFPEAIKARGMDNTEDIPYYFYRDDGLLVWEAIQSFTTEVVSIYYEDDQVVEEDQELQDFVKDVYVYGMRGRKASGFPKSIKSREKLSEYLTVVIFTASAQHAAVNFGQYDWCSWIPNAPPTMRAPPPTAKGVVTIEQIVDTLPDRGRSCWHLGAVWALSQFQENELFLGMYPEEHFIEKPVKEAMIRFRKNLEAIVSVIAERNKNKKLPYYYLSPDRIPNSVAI
# Experimental: 5-Lipoxygenase enzyme was prepared as a 10,000 g supernatant from RBL-1 cells by the method of Jakschik [Jakschik, B. A., F. F. Sun, L. M. Lee, and M. M. Steinhoff, 1980, Biochem. Biophys. Res. Comm. 95, 103]. The 10,000 g supernatant was diluted with homogenization buffer to the equivalent of 1.5-2.5×10^7 cells. ml^-1 and made 2 mM with respect to CaCl2. Aliquots of 0.5 ml were then dispensed into tubes, and incubated at 29° C. with 5 μl ethanol or compound in ethanol at the desired concentration for 2 min. Then [1-^14 C] arachidonic acid was added in buffer to give a final concentration of 6.3 μm and 0.2 μCi per incubation, and the reaction continued at 29° C. for 2 min. The reaction was terminated by adding 1 ml of acetone and cooling on ice, 0.5 ml of ice-cold saline and 10 μl of 2N formic acid were added, and the mixture was extracted with 2×2 ml of chloroform. The extract was stored under N2 at -20° C. until analysis by chromatography. Activity was measured as the percentage of total radioactivity found in 5-HETE and 5,12-diHETE, and inhibition calculated as the decrease in formation of the sum of these two species in compound-treated incubates relative to control incubates.
# (P values as assessed by the students `t` test).
SMILES,minimal effective dose ([1]; po) [mg/kg],minimal effective dose ([1]; ip) [mg/kg],"inhibition of 5-lipoxygenase (formation of 5-HETE and 5,12-diHETE) (5-Lipoxygenase enzyme; concentration of 5 μm) [%]","inhibition of 5-lipoxygenase (formation of 5-HETE and 5,12-diHETE) (5-Lipoxygenase enzyme; concentration of 50 μm) [%]"
"CN(C)C1=NC(c2ccc(Cl)cc2)c2ccccc2C1.Cl.O (stereo not shown) [Example 2, 1-(4-Chlorophenyl)-3-dimethylamino-1,4-dihydroisoquinoline hydrochloride hydrate]",12.5,–,–,–
"CN(C)C1=NC(c2ccccc2F)c2ccccc2C1 (stereo not shown) [Example 10, 1-(2-Fluorophenyl)-1,4-dihydro-3-dimethylaminoisoquinoline hydrochloride]",25,–,–,–
"Br.CN(C)C1=NC(c2ccc(Cl)cc2)c2ccc(O)cc2C1 (stereo not shown) [Example 32, 1-(4-Chlorophenyl)-3-dimethylamino-6-hydroxy-1,4-dihydroisoquinoline hydrobromide]",–,25,–,–
"CN(C)C1=NC(c2ccccc2Cl)c2ccccc2C1.Cl (stereo not shown) [Example 1, 1-(2-Chlorophenyl)-3-dimethylamino-1,4-dihydroisoquinoline hydrochloride]",25,–,15,50
"Br.CN(C)C1=NC(c2ccc(Cl)cc2)c2c(O)cccc2C1.O (stereo not shown) [Example 31, 1-(4-Chlorophenyl)-3-dimethylamino-8-hydroxy-1,4-dihydroisoquinoline hydrobromide hydrate]",–,20,–,–
"Br.CN(C)C1=NC(c2ccc(Cl)cc2)c2cc(O)c(O)cc2C1 (stereo not shown) [Example 30, 1-(4-Chlorophenyl)-6,7-dihydroxy-3-dimethylamino-1,4-dihydroisoquinoline hydrobromide]",–,12.5,37,92
